According to ChEMBL document CHEMBL4316583, “In Vitro and in Vivo Antitumor Effects of Plant-Derived Miliusanes and Their Induction of Cellular Senescence” (J Med Chem, 2019):
The source made the active and inactive calls. No cut-off for these calls is given here.

Experiments:
[1] = system: A-375; test: Cytotoxicity against human A375 cells assessed as cell growth inhibition after 48 hrs by sulforhodamine B assay; assay type: functional, cell-based; conditions: A-375, 48 h
[2] = system: HCT-116; test: Antitumor activity against human HCT116 cells xenografted in nude BALB/c mouse assessed as reduction in volume of growing subcutaneous tumor at 10 mg/kg, ip administered twice a week for 3 weeks; assay type: functional, organism-based
[3] = system: HCT-116; test: Antitumor activity against human HCT116 cells xenografted in nude BALB/c mouse assessed as tumor growth inhibition at 10 mg/kg, ip administered twice a week for 3 weeks relative to control; assay type: functional; conditions: HCT-116, ip, 504 h, read-out: TGI
[4] = system: HeLa; test: Antitumor activity against human HeLa cells xenografted in nude BALB/c mouse assessed as tumor growth inhibition at 10 mg/kg, ip administered every other day for 21 days and observed for 6 days before sacrifice relative to control; assay type: functional; conditions: read-out: TGI
[5] = system: HeLa; test: Antitumor activity against human HeLa cells xenografted in nude BALB/c mouse assessed as suppression of excised tumor size at 10 mg/kg, ip administered every other day for 21 days and observed for 6 days before sacrifice relative to control; assay type: functional
[6] = Toxicity in nude BALB/c mouse xenografted with human A375 cells assessed as body weight loss at 10 mg/kg, ip measured on day 17 and 21; assay type: organism-based; conditions: in vivo
[7] = Toxicity in BALB/c mouse assessed as mortality at 5 mg/kg, ip dosed daily and measured on day 25; assay type: organism-based; conditions: in vivo
[8] = Toxicity in BALB/c mouse assessed as mortality at 2.5 mg/kg, ip administered daily for 28 days; assay type: organism-based; conditions: in vivo, read-out: Activity
[9] = system: A2780; test: Growth inhibition human A2780 cells after 72 hrs by MTS assay; assay type: functional, cell-based; conditions: A2780, 72 h
[10] = system: HCT-116; test: Induction of apoptosis in human HCT116 cells assessed as viable cells at 5.86 nM after 48 hrs by annexin V/propidium iodide-double staining based flow cytometry (reference value: 88.3%); assay type: functional; conditions: HCT-116, 48 h, read-out: Activity
[11] = system: HCT-116; test: Induction of apoptosis in human HCT116 cells assessed as early apoptotic cells at 5.86 nM after 48 hrs by annexin V/propidium iodide-double staining based flow cytometry (reference value: 4.8%); assay type: functional
[12] = system: HCT-116; test: Induction of apoptosis in human HCT116 cells assessed as late apoptotic cells at 5.86 nM after 48 hrs by annexin V/propidium iodide-double staining based flow cytometry (reference value: 4.6%); assay type: functional
[13] = system: HCT-116; test: Induction of apoptosis in human HCT116 cells assessed as necrotic cells at 5.86 nM after 48 hrs by annexin V/propidium iodide-double staining based flow cytometry (reference value: […]); assay type: functional
[14] = Toxicity in human HCT116 cells xenografted nude BALB/c mouse assessed as tumor growth inhibition at 7.5 mg/kg, ip administered daily for 11 days; assay type: organism-based; conditions: in vivo, 264 h
[15] = system: HCT-116; test: Cytotoxicity against human HCT116 cells assessed as cell growth inhibition after 48 hrs by sulforhodamine B assay; assay type: functional, cell-based; conditions: HCT-116, 48 h
[16] = system: HCT-116; test: Cytotoxicity against human HCT116 cells assessed as cell growth inhibition after 24 hrs by sulforhodamine B assay; assay type: functional, cell-based; conditions: HCT-116, 24 h
[17] = system: HCT-116; test: Antiproliferative activity against human HCT116 cells assessed as inhibition of colony formation at 1.77 uM after 14 days by crystal violet-staining based assay; assay type: functional, cell-based
[18] = system: HCT-116; test: Antitumor activity against human HCT116 cells xenografted in nude BALB/c mouse assessed as tumor growth inhibition at 20 mg/kg, ip administered daily for 21 days relative to control; assay type: functional; conditions: HCT-116, ip, 504 h, read-out: TGI
[19] = system: HCT-116; test: Antitumor activity against human HCT116 cells xenografted in nude BALB/c mouse assessed as tumor growth inhibition at 10 mg/kg, ip administered daily for 21 days relative to control; assay type: functional; conditions: HCT-116, ip, 504 h, read-out: TGI
[20] = system: HCT-116; test: Antitumor activity against human HCT116 cells xenografted in nude BALB/c mouse assessed as tumor growth inhibition at 20 mg/kg, ip administered every other day for 21 days relative to control; assay type: functional; conditions: HCT-116, ip, 504 h, read-out: TGI
[21] = Toxicity in nude BALB/c mouse xenografted with human HCT116 cells assessed as body weight loss at 30 mg/kg, ip administered daily for 3 weeks; assay type: organism-based; conditions: in vivo, 504 h
[22] = Toxicity in nude BALB/c mouse xenografted with human HCT116 cells assessed as body weight loss at 10 to 20 mg/kg, ip measured on day 10 and 11; assay type: organism-based; conditions: in vivo
[23] = Toxicity in nude BALB/c mouse xenografted with human HCT116 cells assessed as body weight loss at 40 mg/kg, administered every other day for 21 days; assay type: organism-based; conditions: in vivo, 504 h
[24] = system: HeLa; test: Antitumor activity against human HeLa cells xenografted in nude BALB/c mouse assessed as tumor growth inhibition at 30 mg/kg, ip administered every other day for 21 days and observed for 6 days before sacrifice relative to control; assay type: functional; conditions: read-out: TGI
[25] = system: HeLa; test: Antitumor activity against human HeLa cells xenografted in nude BALB/c mouse assessed as tumor growth inhibition at 20 mg/kg, ip administered every other day for 21 days and observed for 6 days before sacrifice relative to control; assay type: functional; conditions: read-out: TGI
[26] = system: HeLa; test: Antitumor activity against human HeLa cells xenografted in nude BALB/c mouse assessed as suppression of excised tumor size at 30 mg/kg, ip administered every other day for 21 days and observed for 6 days before sacrifice relative to control; assay type: functional
[27] = system: HeLa; test: Antitumor activity against human HeLa cells xenografted in nude BALB/c mouse assessed as suppression of excised tumor size at 20 mg/kg, ip administered every other day for 21 days and observed for 6 days before sacrifice relative to control; assay type: functional
[28] = Toxicity in nude BALB/c mouse xenografted with human HeLa cells assessed as body weight loss at 20 mg/kg, administered every other day for 21 days; assay type: organism-based; conditions: in vivo, 504 h
[29] = Toxicity in nude BALB/c mouse xenografted with human HeLa cells assessed as body weight loss at 30 mg/kg, administered every other day for 21 days; assay type: organism-based; conditions: in vivo, 504 h
[30] = system: A-375; test: Antitumor activity against human A375 cells xenografted in nude BALB/c mouse assessed as tumor growth inhibition at 15 mg/kg, ip administered every other day for 23 days relative to control; assay type: functional; conditions: A-375, ip, 552 h, read-out: TGI
[31] = system: A-375; test: Antitumor activity against human A375 cells xenografted in nude BALB/c mouse assessed as tumor growth inhibition at 7.5 mg/kg, ip administered every other day for 23 days relative to control; assay type: functional; conditions: A-375, ip, 552 h, read-out: TGI
[32] = system: A-375; test: Antitumor activity against human A375 cells xenografted in nude BALB/c mouse assessed as suppression of tumor volume at 15 mg/kg, ip administered every other day for 23 days relative to control; assay type: functional; conditions: A-375, ip, 552 h, read-out: TGI
[33] = system: A-375; test: Antitumor activity against human A375 cells xenografted in nude BALB/c mouse assessed as suppression of tumor volume at 7.5 mg/kg, ip administered every other day for 23 days relative to control; assay type: functional; conditions: A-375, ip, 552 h, read-out: TGI
[34] = Toxicity in nude BALB/c mouse xenografted with human A375 cells assessed as body weight loss at 15 mg/kg, ip administered every other day for 23 days; assay type: organism-based; conditions: in vivo, 552 h
[35] = system: HCT-116; test: Induction of cellular senescence in human HCT116 cells at 0.22 uM after 48 hrs by SA-beta-gal-staining based assay; assay type: functional, cell-based
[36] = system: HCT-116; test: Induction of cellular senescence in human HCT116 cells assessed as up-regulation of TP53 gene at 0.22 uM after 48 hrs by qPCR assay; assay type: functional, cell-based
[37] = system: HCT-116; test: Induction of cellular senescence in human HCT116 cells assessed as up-regulation of CDKN1A gene at 0.22 uM after 48 hrs by qPCR assay; assay type: functional, cell-based
[38] = system: HCT-116; test: Induction of cellular senescence in human HCT116 cells assessed as up-regulation of p21 protein expression at 0.05 to 0.2 ug/ml after 48 hrs by Western blot analysis; assay type: functional, cell-based
[39] = system: HCT-116; test: Induction of cellular senescence in human HCT116 cells assessed as up-regulation of p21 protein expression at 0.22 uM after 48 hrs in presence of p21 siRNA by SA-beta-gal-staining based Western blot analysis; assay type: functional, cell-based
[40] = system: HT-29; test: Growth inhibition human HT-29 cells after 72 hrs by MTS assay; assay type: functional, cell-based
[41] = system: HCT-116; test: Antiproliferative activity against human HCT116 cells xenografted in BALB/c mouse at 20 mg/kg, administered every other day for 3 weeks by Ki67-staining based assay; assay type: functional, organism-based
[42] = Toxicity in nude BALB/c mouse xenografted with human HCT116 cells assessed as body weight loss at 10 mg/kg, ip administered daily for 3 weeks; assay type: organism-based; conditions: in vivo, 504 h
[43] = system: HCT-116; test: Induction of cellular senescence in human HCT116 cells assessed as up-regulation of p16 protein expression at 0.05 to 0.2 ug/ml after 48 hrs by Western blot analysis; assay type: functional, cell-based
[44] = system: Mus musculus; test: Induction of cellular senescence in BALB/c mouse xenografted with human HCT116 cells assessed as up-regulation of p21 protein expression at 20 mg/kg, administered every other day for 3 weeks by immunohistochemical analysis; assay type: functional, organism-based
[45] = system: Mus musculus; test: Induction of cellular senescence in BALB/c mouse xenografted with human HCT116 cells assessed as up-regulation of p16 protein expression at 20 mg/kg, administered every other day for 3 weeks by immunohistochemical analysis; assay type: functional, organism-based
[46] = system: Mus musculus; test: Effect on p27 protein expression in BALB/c mouse xenografted with human HCT116 cells at 20 mg/kg, administered every other day for 3 weeks by immunohistochemical analysis; assay type: functional, organism-based

## CC(=O)O[C@H]1C(=O)[C@@]2(C)[C@H]([C@H](OC(=O)c3ccccc3)[C@]3(O)C[C@H](OC(=O)[C@H](O)[C@@H](NC(=O)c4ccccc4)c4ccccc4)C(C)=C1C3(C)C)[C@]1(OC(C)=O)CO[C@@H]1C[C@@H]2O [PACLITAXEL]
[1]
  IC50: 2 nM
[2]
  Activity: Active
[3]
  inhibition in vivo at 10 mg/kg: 52.6%
[4]
  inhibition in vivo at 10 mg/kg: 46.5%
[5]
  Activity: 48.9%
[6]
  Activity: Toxic
[7]
  Activity: Toxic
[8]
  mortality at 672 h: 30%
[9]
  IC50: 1.5 nM
[10]
  viability at 0.00586 µM: 67.3%
[11]
  Activity: 14.1%
[12]
  Activity: 9.4%
[13]
  Activity: 9.2%
[14]
  Activity: Toxic

## CC(C)=CCC/C(C)=C/[C@H]1OC(=O)C[C@]12C[C@H](OC(=O)c1ccc(N(C)C)cc1)C=CC2=O
[15]
  IC50: 1690 nM
[16]
  IC50: 2570 nM
[17]
  Activity: Active
[18]
  inhibition in vivo at 20 mg/kg: 57.1%
[19]
  inhibition in vivo at 10 mg/kg: 51%
[20]
  inhibition in vivo at 20 mg/kg: 40 to 48.3%
[21]
  Activity: 2 g
[22]
  Activity: Toxic
[23]
  Activity: Non-Toxic
[24]
  inhibition in vivo at 30 mg/kg: 75.9%
[25]
  inhibition in vivo at 20 mg/kg: 54.7%
[4]
  inhibition in vivo at 10 mg/kg: 17.2%
[26]
  Activity: 76.9%
[27]
  Activity: 55.4%
[5]
  Activity: 29.6%
[28]
  Activity: 0.9 g
[29]
  Activity: 2.2 g
[30]
  inhibition in vivo at 15 mg/kg: 19.4%
[31]
  inhibition in vivo at 7.5 mg/kg: 20.6%
[32]
  inhibition in vivo at 15 mg/kg: 39.4%
[33]
  inhibition in vivo at 7.5 mg/kg: 39.6%
[34]
  Activity: 1.5 g
[35]
  Activity: Active
[36]
  Activity: Active
[37]
  Activity: Active
[38]
  Activity: Active
[39]
  Activity: inactive
[40]
  growth inhibition (GI): Active
[41]
  Activity: Active
[42]
  Activity: Non-Toxic
[43]
  Activity: Active
[44]
  Activity: Active
[45]
  Activity: Active
[46]
  Activity: inactive
